Measured values taken from patent US4594246A, “Pharmaceutically-acceptable amine salts of 6-β-halopenicillanic acids” (Leo Pharmaceutical Products, priority 1979, dated 1986).
Values after ≈ are worked out from the molar mass of the structure shown. Where two headings read alike, the source gives them in different places.

Assays:
[1] = as such or as hydrochloride; cited from earlier work
[2] = test system: Staphylococcus aureus CJ9; assay: Susceptibility of β-lactamase producing bacterial strains to β-lactam antibiotics in 1:1 combination (Table II); assay type: cell-based
[3] = test system: Staphylococcus aureus CJ145; assay: as above; assay type: cell-based
[4] = test system: Klebsiella pneumoniae HE7; assay: as above; assay type: cell-based
Proteus mirabilis HJ28 = assay: as above; assay type: cell-based
[5] = test system: Escherischia coli HA58 (RTEM); assay: organism not typed; assay type: cell-based
β-lactamases = details: well known; cited from earlier work
[6] = serial dilution in agar medium, inoculum 10^5 CFU, alone or in 1:1 combination (value of each partner), read-out: IC50
[7] = serial dilution in agar medium, inoculum 10^4 CFU, alone or in 1:1 combination (value of each partner), read-out: IC50

Row | SMILES | concentration of benzylpenicillin in the udder [1] | effect in the treatment of mastitis [1] | MIC [2] | IC50 [3] | IC50 [4] | minimum inhibitory concentration (MIC) (Proteus mirabilis HJ28) | minimum inhibitory concentration (MIC) [5] | sensitivity to β-lactamases (β-lactamases) | MIC [2, 6] | IC50 [3, 6] | IC50 [4, 7] | minimum inhibitory concentration (MIC) (Proteus mirabilis HJ28; [7])
1 | CCN(CC)CCOC(=O)[C@@H]1N2C(=O)[C@@H](NC(=O)Cc3ccccc3)[C@H]2SC1(C)C [Penethamate] | rapid and high concentration of benzylpenicillin in the udder | very effective in the treatment of mastitis |  |  |  |  |  |  |  |  |  | 
2 | CC1(C)S[C@@H]2[C@H](NC(=O)Cc3ccccc3)C(=O)N2[C@H]1C(=O)O [Benzylpenicillin] |  |  | > 100 µg/mL | 10 µg/mL | > 100 µg/mL | > 100 µg/mL | > 100 µg/mL | very sensitive to β-lactamases |  |  |  | 
3 | CC1(C)S[C@@H]2[C@H](/N=C/N3CCCCCC3)C(=O)N2[C@H]1C(=O)O [Mecillinam] |  |  |  |  |  |  | 1.3 µg/mL (≈ 3.99 µM) |  | > 50 µg/mL | > 50 µg/mL | > 25 µg/mL | 6.3 µg/mL
4 | CC1(C)S[C@@H]2[C@H](NC(=O)[C@H](N)c3ccccc3)C(=O)N2[C@H]1C(=O)O [Ampicillin] |  |  |  |  |  |  | > 100 µg/mL |  | 10 µg/mL | 1.6 µg/mL | > 50 µg/mL | > 50 µg/mL
